From PubChem BioAssay (NCI)
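48-hour exposure; five concentrations; linearly interpolated endpoints. GI50 = concentration required for 50% inhibition of growth. TGI: concentration producing complete growth inhibition.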

What was measured:
Experiment in all cases: inhibition of tumour cell growth, NCI panel, 48 h; in the data active = GI50 below about 0.43 µM; inactive = the rest
NCI-H460 lung = system: NCI-H460 lung
NCI-H522 lung = system: NCI-H522 lung
NCI/ADR-RES ovarian = system: NCI/ADR-RES ovarian
OVCAR-3 ovarian = system: OVCAR-3 ovarian
OVCAR-4 ovarian = system: OVCAR-4 ovarian
OVCAR-5 ovarian = system: OVCAR-5 ovarian
OVCAR-8 ovarian = system: OVCAR-8 ovarian
PC-3 prostate = system: PC-3 prostate
RPMI-8226 leukemia = system: RPMI-8226 leukemia
SF-295 CNS = system: SF-295 CNS
SF-539 CNS = system: SF-539 CNS
SK-MEL-2 melanoma = system: SK-MEL-2 melanoma
SK-MEL-5 melanoma = system: SK-MEL-5 melanoma
SK-OV-3 ovarian = system: SK-OV-3 ovarian
SN12C renal = system: SN12C renal
SNB-19 CNS = system: SNB-19 CNS
SNB-75 CNS = system: SNB-75 CNS
SR leukemia = system: SR leukemia
SW-620 colon = system: SW-620 colon
T-47D breast = system: T-47D breast
TK-10 renal = system: TK-10 renal
U251 CNS = system: U251 CNS
UACC-257 melanoma = system: UACC-257 melanoma
UACC-62 melanoma = system: UACC-62 melanoma
UO-31 renal = system: UO-31 renal

O=C1Nc2ccccc2/C1=C/C(=O)c1ccc(N2CCCC2)cc1
8.04 µM: TGI (PC-3 prostate)
4.42 µM: TGI (SR leukemia)
active: GI50 (SR leukemia) 0.327 µM | GI50 (SW-620 colon) 0.339 µM
inactive: GI50 (NCI-H460 lung) 2.86 µM | GI50 (NCI-H522 lung) 2.28 µM | GI50 (NCI/ADR-RES ovarian) 2.15 µM | GI50 (OVCAR-3 ovarian) 1.79 µM | GI50 (OVCAR-4 ovarian) 3.1 µM | GI50 (OVCAR-5 ovarian) 4.54 µM | GI50 (OVCAR-8 ovarian) 1.62 µM | GI50 (PC-3 prostate) 1.77 µM | GI50 (RPMI-8226 leukemia) 1.98 µM | GI50 (SF-295 CNS) 3.96 µM | GI50 (SF-539 CNS) 2.11 µM | GI50 (SK-MEL-2 melanoma) 3.87 µM | GI50 (SK-MEL-5 melanoma) 2.96 µM | GI50 (SK-OV-3 ovarian) 3.4 µM | GI50 (SN12C renal) 3.26 µM | GI50 (SNB-19 CNS) 3.8 µM | GI50 (SNB-75 CNS) 2.05 µM | GI50 (T-47D breast) 2.12 µM | GI50 (TK-10 renal) 3.24 µM | GI50 (U251 CNS) 2.89 µM | GI50 (UACC-257 melanoma) 4.3 µM | GI50 (UACC-62 melanoma) 2.78 µM | GI50 (UO-31 renal) 2.14 µM
6.91 µM: TGI (SNB-75 CNS)
8.17 µM: TGI (NCI-H460 lung)
6.5 µM: TGI (NCI/ADR-RES ovarian)
3.01 µM: TGI (SW-620 colon)
4.83 µM: TGI (OVCAR-3 ovarian)
4.75 µM: TGI (SF-539 CNS)
6.38 µM: TGI (T-47D breast)
9.81 µM: TGI (UACC-62 melanoma)
4.5 µM: TGI (OVCAR-8 ovarian)
> 100 µM: TGI (NCI-H522 lung) | TGI (OVCAR-4 ovarian) | TGI (OVCAR-5 ovarian) | TGI (SF-295 CNS) | TGI (SK-MEL-2 melanoma) | TGI (SK-MEL-5 melanoma) | TGI (SK-OV-3 ovarian) | TGI (SN12C renal) | TGI (SNB-19 CNS) | TGI (TK-10 renal) | TGI (U251 CNS) | TGI (UACC-257 melanoma) | TGI (UO-31 renal)
5.31 µM: TGI (RPMI-8226 leukemia)
